From patent publication US20020019527A1 (priority 2000, published 2002)
Counter-ions that a name gives are not always drawn.

Molecular target: T1, Farnesyltransferase (FTase) (Bos taurus, UniProt P29702+P49355)
T1 construct: precipitation from a beef brain homogenate; from tissue; host or cells: bovine brain
Assay: Farnesyltransferase inhibition (scintillation proximity assay, [3H]-FPP / biotin-K-ras peptide)
Type: biochemical, bovine
Conditions: compound at 10^−6 M; bovine FTase, 37° C., 30 minutes
Outline: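 Bovine brain FTase, partially purified by 30–50% saturated ammonium sulfate precipitation and DEAE Sepharose chromatography, separated from GGTase I/II. Scintillation proximity read-out of [3H]-FPP transfer to biotin-K-ras peptide, counted 1 h after quench. Compounds added from ethanol with 10-fold dilution into assay.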

T1 sequence (P49355 whole entry, one chain of several): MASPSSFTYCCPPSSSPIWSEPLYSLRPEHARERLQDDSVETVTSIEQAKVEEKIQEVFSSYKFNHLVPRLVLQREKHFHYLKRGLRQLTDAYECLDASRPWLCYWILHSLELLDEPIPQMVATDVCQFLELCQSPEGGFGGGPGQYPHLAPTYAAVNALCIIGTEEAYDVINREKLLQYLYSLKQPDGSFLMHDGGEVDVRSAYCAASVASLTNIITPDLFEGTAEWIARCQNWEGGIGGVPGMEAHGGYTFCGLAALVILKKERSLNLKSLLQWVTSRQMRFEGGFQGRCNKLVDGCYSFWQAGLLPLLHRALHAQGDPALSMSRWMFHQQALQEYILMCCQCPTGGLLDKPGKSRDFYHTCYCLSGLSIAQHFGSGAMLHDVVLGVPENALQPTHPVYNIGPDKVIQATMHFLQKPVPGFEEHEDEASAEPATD

Row | inhibition at 1 µM [%] | Compound
1 | 100 | Cn1cncc1C(OCc1ccc(N=[N+]=[N-])cc1)c1ccc(C#N)c(-c2cccc3ccccc23)c1 (centres unmarked) [Example 276, 4-((1-methyl-1H-imidazol-5-yl)((4-azidobenzyl)oxy)methyl)-2-(1-naphthyl)benzonitrile hydrochloride]
2 | 95 | COC(=O)c1ccc(COC(c2ccc(C#N)c(-c3ccccc3C(F)(F)F)c2)c2cncn2C)nc1 (centres unmarked) [Example 277, methyl 6-(((6-cyano-2′-(trifluoromethyl)(1,1′-biphenyl)-3-yl)(1-methyl-1H-imidazol-5-yl)methoxy)methyl)nicotinate dihydrochloride]
3 | 99 | Cc1cccc(-c2cc(C(OCc3ccc(C#N)cc3)c3cncn3C)ccc2C#N)c1C (centres unmarked) [Example 278, 5-(((4-cyanobenzyl)oxy)(1-methyl-1H-imidazol-5-yl)methyl)-2′,3′-dimethyl(1,1′-biphenyl)-2-carbonitrile hydrochloride]
4 | 99 | Cn1cncc1C(OCc1ccc(C#N)cc1)c1ccc(C#N)c(-c2cccc(Cl)c2Cl)c1 (centres unmarked) [Example 279, 2′,3′-dichloro-5-(((4-cyanobenzyl)oxy)(1-methyl-1H-imidazol-5-yl)methyl)(1,1′-biphenyl)-2-carbonitrile hydrochloride]
5 | 98 | Cn1cncc1C(OCc1ccc(C#N)cn1)c1ccc(C#N)c(-c2cccc(Cl)c2Cl)c1 (centres unmarked) [Example 280, 6-(((2′,3′-dichloro-6-cyano(1,1′-biphenyl)-3-yl)(1-methyl-1H-imidazol-5-yl)methoxy)methyl)nicotinonitrile dihydrochloride]
6 | 98 | Cc1cccc(-c2cc(C(OCc3ccc(C#N)cn3)c3cncn3C)ccc2C#N)c1C (centres unmarked) [Example 281, 6-(((6-cyano-2′,3′-dimethyl(1,1′-biphenyl)-3-yl)(1-methyl-1H-imidazol-5-yl)methoxy)methyl)nicotinonitrile dihydrochloride]
7 | 75 | N#Cc1ccc(COC(c2ccsc2)c2ccc(C#N)c(-c3cccc4ccccc34)c2)nc1 (centres unmarked) [Example 289, 6-(((4-cyano-3-(1-naphthyl)phenyl)(3-thienyl)methoxy)methyl)nicotinonitrile]

Test system: not listed separately
Assay: Cardiovascular liability test
Conditions: not given
Procedure: Representative compounds of the instant invention were also tested for cardiovascular liability (see Journal of Cardiovascular Pharmacology, 607-618: 37 (2001)).

Row | Compound | electrophysiological profile (cardiovascular liability)
8 | N#Cc1ccc(COC(c2ccc(C#N)c(-c3cccc4ccccc34)c2)c2cncs2)nc1 (centres unmarked) [Example 291, 6-(((4-cyano-3-(1-naphthyl)phenyl)(1,3-thiazol-5-yl)methoxy)methyl)nicotinonitrile] | improved electrophysiological profile
